target: CDK2/Cyclin E1 (Homo sapiens (Human), UniProt P24941); assay: CDK2/Cyclin E1 HTRF enzyme activity assay; assay type: biochemical; conditions: 1 mM ATP; CDK2/Cyclin E1 0.25 nM; 60 minutes at room temperature
In short: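 Full-length GST-CDK2 co-expressed with FLAG-Cyclin E1 (baculovirus), 0.25 nM, reacted with 50 nM ULight-4E-BP1 (Thr37/46) peptide at 50 μM or 1 mM ATP in HEPES pH 7.5 buffer, 60 min, room temperature. EDTA plus Eu-anti-phospho-4E-BP1 antibody stopped the reaction; HTRF read after 1 h; IC50 from three- or four-parameter fits.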

| IC50 | Compound |
| --- | --- |
| ≤ 20 nM | C[C@@H]1CN(S(C)(=O)=O)CC[C@@H]1Nc1nc2ccc(-c3cn[nH]c3)c(OCC(F)F)n2n1 [Example 72, 5-(2,2-Difluoroethoxy)-N-((3R,4S)-3-methyl-1-(methylsulfonyl)piperidin-4-yl)-6-(1H-pyrazol-4-yl)-[1,2,4]triazolo[1,5-a]pyridin-2-amine] |
| ≤ 20 nM | CC(C)CCOc1c(-c2cn[nH]c2)ncc2nc(N[C@H]3CCN(S(C)(=O)=O)C[C@H]3C)nn12 [Example 116, 5-(Isopentyloxy)-N-((3R,4S)-3-methyl-1-(methylsulfonyl)piperidin-4-yl)-6-(1H-pyrazol-4-yl)-[1,2,4]triazolo[1,5-a]pyrazin-2-amine] |
| ≤ 20 nM | CS(=O)(=O)N1CCC(Nc2nc3cnc(-c4cn[nH]c4)c(N4CCC[C@@H](F)C4)n3n2)CC1 [Example 128, (R)-5-(3-Fluoropiperidin-1-yl)-N-(1-(methylsulfonyl)piperidin-4-yl)-6-(1H-pyrazol-4-yl)-[1,2,4]triazolo[1,5-a]pyrazin-2-amine] |
| ≤ 20 nM | CCS(=O)(=O)N1CC[C@H](Nc2nc3c(OC(C)C)c(-c4cn[nH]c4)ncn3n2)[C@H](C)C1 [Example 54, N-((3R,4S)-1-(Ethylsulfonyl)-3-methylpiperidin-4-yl)-8-isopropoxy-7-(1H-pyrazol-4-yl)-[1,2,4]triazolo[1,5-c]pyrimidin-2-amine] |
| ≤ 20 nM | CC(C)Oc1c(-c2cn[nH]c2)ncc2nc(N[C@H]3CCN(S(C)(=O)=O)C[C@H]3C)nn12 [Example 87, 5-Isopropoxy-N-((3R,4S)-3-methyl-1-(methylsulfonyl)piperidin-4-yl)-6-(1H-pyrazol-4-yl)-[1,2,4]triazolo[1,5-a]pyrazin-2-amine] |
| ≤ 20 nM | CCN(CC)CCCS(=O)(=O)N1CC[C@H](Nc2nc3c(OC(C)C)c(-c4cn[nH]c4)ncn3n2)[C@H](C)C1 [Example 60, N-((3R,4S)-1-((3-(Diethylamino)propyl)sulfonyl)-3-methylpiperidin-4-yl)-8-isopropoxy-7-(1H-pyrazol-4-yl)-[1,2,4]triazolo[1,5-c]pyrimidin-2-amine] |
| ≤ 20 nM | CCOc1c(-c2cn[nH]c2)ccn2nc(N[C@H]3CCN(S(=O)(=O)C4CC4)C[C@H]3C)nc12 [Example 13, N-((3R,4S)-1-(cyclopropylsulfonyl)-3-methylpiperidin-4-yl)-8-ethoxy-7-(1H-pyrazol-4-yl)-[1,2,4]triazolo[1,5-a]pyridin-2-amine] |
| ≤ 20 nM | CC(C)Oc1c(-c2cn[nH]c2)ncc2nc(N[C@H]3CCN(S(=O)(=O)C4CC4)C[C@H]3C)nn12 [Example 89, N-((3R,4S)-1-(Cyclopropylsulfonyl)-3-methylpiperidin-4-yl)-5-isopropoxy-6-(1H-pyrazol-4-yl)-[1,2,4]triazolo[1,5-a]pyrazin-2-amine] |
| ≤ 20 nM | CCCOc1c(-c2cn[nH]c2)ncc2nc(N[C@H]3CCN(S(C)(=O)=O)C[C@H]3C)nn12 [Example 102, N-((3R,4S)-3-Methyl-1-(methylsulfonyl)piperidin-4-yl)-5-propoxy-6-(1H-pyrazol-4-yl)-[1,2,4]triazolo[1,5-a]pyrazin-2-amine] |
| ≤ 20 nM | CC(C)Oc1c(-c2cn[nH]c2)ncn2nc(N[C@H]3CCN(S(=O)(=O)CCCN4CCCCC4)C[C@H]3C)nc12 [Example 58, 8-Isopropoxy-N-((3R,4S)-3-methyl-1-((3-(piperidin-1-yl)propyl)sulfonyl)piperidin-4-yl)-7-(1H-pyrazol-4-yl)-[1,2,4]triazolo[1,5-c]pyrimidin-2-amine] |
| ≤ 20 nM | C[C@@H]1CN(S(C)(=O)=O)CC[C@@H]1Nc1nc2ccc(-c3cn[nH]c3)c(N3CCCCC3)n2n1 [Example 83, N-((3R,4S)-3-Methyl-1-(methylsulfonyl)piperidin-4-yl)-5-(piperidin-1-yl)-6-(1H-pyrazol-4-yl)-[1,2,4]triazolo[1,5-a]pyridin-2-amine] |

More lines, now with the values behind:

| Compound | IC50 |
| --- | --- |
| CCN(C)CCCCS(=O)(=O)N1CC[C@H](Nc2nc3c(OC(C)C)c(-c4cn[nH]c4)ncn3n2)[C@H](C)C1 [Example 65, N-((3R,4S)-1-((4-(Ethyl(methyl)amino)butyl)sulfonyl)-3-methylpiperidin-4-yl)-8-isopropoxy-7-(1H-pyrazol-4-yl)-[1,2,4]triazolo[1,5-c]pyrimidin-2-amine] | ≤ 20 nM |
| CC(C)Oc1c(-c2cn[nH]c2)ncn2nc(NC3CCN(S(C)(=O)=O)CC3)nc12 [Example 14, 8-isopropoxy-N-(1-(methylsulfonyl)piperidin-4-yl)-7-(1H-pyrazol-4-yl)-[1,2,4]triazolo[1,5-c]pyrimidin-2-amine] | ≤ 20 nM |
| CS(=O)(=O)N1CCC(Nc2nc3cnc(-c4cn[nH]c4)c(N4CCC(F)(F)C4)n3n2)CC1 [Example 130, 5-(3,3-Difluoropyrrolidin-1-yl)-N-(1-(methylsulfonyl)piperidin-4-yl)-6-(1H-pyrazol-4-yl)-[1,2,4]triazolo[1,5-a]pyrazin-2-amine] | ≤ 20 nM |
| COC(=O)N1CCC(Oc2c(-c3cn[nH]c3)ccn3nc(NC4CCN(S(C)(=O)=O)CC4)nc23)CC1 [Example 18, Methyl 4-((2-((1-(methylsulfonyl)piperidin-4-yl)amino)-7-(1H-pyrazol-4-yl)-[1,2,4]triazolo[1,5-a]pyridin-8-yl)oxy)piperidine-1-carboxylate] | ≤ 20 nM |
| CCS(=O)(=O)N1CC[C@H](Nc2nc3ccc(-c4cn[nH]c4)c(N4CCCCC4)n3n2)[C@H](C)C1 [Example 84, N-((3R,4S)-1-(Ethylsulfonyl)-3-methylpiperidin-4-yl)-5-(piperidin-1-yl)-6-(1H-pyrazol-4-yl)-[1,2,4]triazolo[1,5-a]pyridin-2-amine] | ≤ 20 nM |
| CC(C)COc1c(-c2cn[nH]c2)ccc2nc(N[C@H]3CCN(S(C)(=O)=O)C[C@H]3C)nn12 [Example 70, 5-Isobutoxy-N-((3R,4S)-3-methyl-1-(methylsulfonyl)piperidin-4-yl)-6-(1H-pyrazol-4-yl)-[1,2,4]triazolo[1,5-a]pyridin-2-amine] | ≤ 20 nM |
| COCCN1CCN(c2c(-c3cn[nH]c3)ncn3nc(NC4CCN(S(C)(=O)=O)CC4)nc23)CC1 [Example 51, 8-(4-(2-Methoxyethyl)piperazin-1-yl)-N-(1-(methylsulfonyl)piperidin-4-yl)-7-(1H-pyrazol-4-yl)-[1,2,4]triazolo[1,5-c]pyrimidin-2-amine] | ≤ 20 nM |
| CS(=O)(=O)N1CCC(Nc2nc3c(N4CCCC4)c(-c4cn[nH]c4)ncn3n2)CC1 [Example 52, N-(1-(Methylsulfonyl)piperidin-4-yl)-7-(1H-pyrazol-4-yl)-8-(pyrrolidin-1-yl)-[1,2,4]triazolo[1,5-c]pyrimidin-2-amine] | ≤ 20 nM |
| C[C@@H]1CN(S(C)(=O)=O)CC[C@@H]1Nc1nc2c(OC3CCC(F)(F)CC3)c(-c3cn[nH]c3)ccn2n1 [Example 39, 8-((4,4-difluorocyclohexyl)oxy)-N-((3R,4S)-3-methyl-1-(methylsulfonyl)piperidin-4-yl)-7-(1H-pyrazol-4-yl)-[1,2,4]triazolo[1,5-a]pyridin-2-amine] | ≤ 20 nM |
| CCOc1c(-c2cn[nH]c2)ccn2nc(N[C@H]3CCN(S(=O)(=O)c4cnn(C)n4)C[C@H]3C)nc12 [Example 21, 8-ethoxy-N-((3R,4S)-3-methyl-1-((2-methyl-2H-1,2,3-triazol-4-yl)sulfonyl)piperidin-4-yl)-7-(1H-pyrazol-4-yl)-[1,2,4]triazolo[1,5-a]pyridin-2-amine] | ≤ 20 nM |
| CCOc1c(-c2cn[nH]c2)ccn2nc(N[C@H]3CCN(S(=O)(=O)CCCN(C)C)C[C@H]3C)nc12 [Example 28, N-((3R,4S)-1-((3-(dimethylamino)propyl)sulfonyl)-3-methylpiperidin-4-yl)-8-ethoxy-7-(1H-pyrazol-4-yl)-[1,2,4]triazolo[1,5-a]pyridin-2-amine] | ≤ 20 nM |
| CS(=O)(=O)N1CCC(Nc2nc3c(N4CCC(F)CC4)c(-c4cn[nH]c4)ccn3n2)CC1 [Example 23, 8-(4-fluoropiperidin-1-yl)-N-(1-(methylsulfonyl)piperidin-4-yl)-7-(1H-pyrazol-4-yl)-[1,2,4]triazolo[1,5-a]pyridin-2-amine] | ≤ 20 nM |
| COCCOc1c(-c2cn[nH]c2)ccn2nc(NC3CCN(S(C)(=O)=O)CC3)nc12 [Example 6, 8-(2-methoxyethoxy)-N-(1-(methylsulfonyl)piperidin-4-yl)-7-(1H-pyrazol-4-yl)-[1,2,4]triazolo[1,5-a]pyridin-2-amine] | ≤ 20 nM |
| CCCc1c(-c2cn[nH]c2)ccn2nc(NC3CCN(S(C)(=O)=O)CC3)nc12 [Example 37, N-(1-(methylsulfonyl)piperidin-4-yl)-8-propyl-7-(1H-pyrazol-4-yl)-[1.2.4]triazolo[1,5-a]pyridin-2-amine] | ≤ 20 nM |
| CC(C)Oc1c(-c2cn[nH]c2)ncn2nc(N[C@H]3CCN(S(=O)(=O)CCCCNCC(F)F)C[C@H]3C)nc12 [Example 64, N-((3R,4S)-1-((4-((2,2-Difluoroethyl)amino)butyl)sulfonyl)-3-methylpiperidin-4-yl)-8-isopropoxy-7-(1H-pyrazol-4-yl)-[1,2,4]triazolo[1,5-c]pyrimidin-2-amine] | ≤ 20 nM |
| CCCCOc1c(-c2cn[nH]c2)ncn2nc(NC3CCN(S(C)(=O)=O)CC3)nc12 [Example 47, 8-Butoxy-N-(1-(methylsulfonyl)piperidin-4-yl)-7-(1H-pyrazol-4-yl)-[1.2.4]triazolo[1,5-c]pyrimidin-2-amine] | ≤ 20 nM |
| CC(C)COc1c(-c2cn[nH]c2)ccc2nc(NC3CCN(S(C)(=O)=O)CC3)nn12 [Example 79, 5-Isobutoxy-N-(1-(methylsulfonyl)piperidin-4-yl)-6-(1H-pyrazol-4-yl)-[1,2,4]triazolo[1,5-a]pyridin-2-amine] | ≤ 20 nM |
| CS(=O)(=O)N1CCC(Nc2nc3c(OCC4CC4)c(-c4cn[nH]c4)ccn3n2)CC1 [Example 4, 8-(cyclopropylmethoxy)-N-(1-(methylsulfonyl)piperidin-4-yl)-7-(1H-pyrazol-4-yl)-[1,2,4]triazolo[1,5-a]pyridin-2-amine] | ≤ 20 nM |
